According to patent US20060167091A1, “Acaricide” (priority 2003, published 2006):

Test system: Two-spotted spider mites
Assay: Miticidal test on two-spotted spider mites
Assay type: in vivo, Tetranychus urticae Koch
Conditions: Tetranychus urticae, 48 h, 2 days after spraying, read-out: Mortality rate
From the text: Two-spotted spider mites from the Nagano prefecture, which are poorly sensitive to chemicals, were used as mite specimens. Preparation A and Preparation B were used as chemical specimens.
A plastic cup (trade name: KP-120, manufactured by Kohnoike plastic Co., Ltd.) was filled with tap water, and the plastic cup was covered with a lid having an incision therein. A piece of non-woven fabric (4.5×5.5 cm) was cut for about 4 cm parallel to its longer side 1 cm from the edge. The portion hanging loose was suspended inside the plastic cup through the incision. A kidney bean leaf (about 3.5×4.5 cm) was placed on the sufficiently soaked, non-woven fabric. Twenty female adults of two-spotted spider mites were released into each cup.
Preparation A and Preparation B each diluted with tap water to specific concentrations were mixed, and the mixture was sprayed in a volume of 2 ml using a spray tower (Potter Spray Tower, manufactured by Burkard Manufacturing Co. Ltd, at a spraying pressure of 5 lb/inch). The kidney bean leaf was placed in a thermostatic chamber having a temperature of 25±2° C. and a humidity of 60%. The numbers of live and dead mites were counted 2 days later. The mortality rate was calculated using the equation provided below.
For comparison, mortality rates were calculated in the same manner as above except that Formulation A and Formulation B each diluted with tap water to specific concentrations were used one without each other. Mortality rate=(1−V/W)×100 where V is the survival rate in the treated area, and W is the survival rate in the untreated area.
Furthermore, the effectiveness (E) anticipated from the miticide of the present invention was calculated using the Colby equation (Weeds 15, 20-22 (1967)) to obtain a mathematical effectiveness (%): E=x+y−(x·y/100) where E is the effectiveness expressed in % anticipated from Compound A and chlorfenapyr when used at concentrations of p and q, respectively; x is the effectiveness of Compound A when used at a concentration of p; and y is the effectiveness of chlorfenapyr when used at a concentration of q.

Row | Compound | mortality at 0.4 ppm (chlorfenapyr 0.4 ppm alone (Compound A 0 ppm)) [%] | mortality at 1 ppm (chlorfenapyr 1 ppm alone (Compound A 0 ppm)) [%] | mortality at 2 ppm (chlorfenapyr 2 ppm alone (Compound A 0 ppm)) [%] | mortality at 5 ppm (chlorfenapyr 5 ppm alone (Compound A 0 ppm)) [%] | mortality at 10 ppm (chlorfenapyr 10 ppm alone (Compound A 0 ppm)) [%] | mortality at 12.5 ppm (Compound A 12.5 ppm alone (chlorfenapyr 0 ppm), female adults on kidney bean leaf) [%] | mortality at 25 ppm (Compound A 25 ppm alone (chlorfenapyr 0 ppm)) [%] | mortality at 50 ppm (Compound A 50 ppm alone (chlorfenapyr 0 ppm)) [%] | mortality at 100 ppm (Compound A 100 ppm alone (chlorfenapyr 0 ppm)) [%] | mortality at 200 ppm (Compound A 200 ppm alone (chlorfenapyr 0 ppm)) [%]
1 | CCOCn1c(-c2ccc(Cl)cc2)c(C#N)c(Br)c1C(F)(F)F [chlorfenapyr, 4-bromo-2-(4-chlorophenyl)-1-ethoxymethyl-5-trifluoromethylpyrrole-3-carbonitrile] | 0 | 0 | 0 | 0 | 84 |  |  |  |  | 
2 | COCCOC(=O)C(C#N)(C(=O)c1ccccc1C(F)(F)F)c1ccc(C(C)(C)C)cc1 (stereo not shown) [Compound A, methoxyethyl 2-(4-tert-butylphenyl)-2-(2-trifluoromethylbenzoyl)cyanoacetate] |  |  |  |  |  | 19 | 45 | 48 | 25 | 66
